pIC50: −log10 of the molar value.
Key:
Ras-related GTPases = assay: Confirmatory dose response assays on eight Ras-related GTPases; type: binding
Method: (§1) For multiplex analyses of small GTPases, 4 μm diameter glutathione-beads (GSH-beads) distinguished by seven different intensities of red fluorescence were used according to our previously described protocols. The GST-GTPases included the following eight Ras-related small GTPases: Rab2 wt, Rab7 wt, Cdc42 wt, Cdc42Q61L activating mutant, H-Ras wt, H-RasG12V, Rac1 wt and Rac1Q61L activating mutant. Briefly, Prestwick Chemical Library® compounds were tested at 10 μM compound and 1% DMSO final concentrations. After a 10 min pre-incubation with the compound BODIPY- FL-GTP (100 nM final) was added to each well and bead associated fluorescence was measured. Sample analysis was conducted with a HyperCyt® high throughput flow cytometry platform. Flow cytometric light scatter at 488 nm and fluorescence emission at 530 +/− 20 nm (FL1) and 665 +/− 10 nm (FL8) were collected on a Cyan ADP flow cytometer (Beckman Coulter, Fullerton, CA). IDLQuery software was used to determine the compound activity in each well. Gating based on forward scatter (FS) and side scatter (SS) parameters was used to identify singlet bead populations. Gating based on FL8 emission distinguishes the beads coated with different proteins, and the median FL1 fluorescence per bead population were calculated. A compound was considered a “potential active” if the change in BODIPY-FL-GTP binding differed greater than 20% from that measured in DMSO treated controls.
(§2) Test compounds identified for follow-up after the primary screen were tested at dilutions ranging from 10 nM to 100 μM final concentration against individual GTPases in multiplex and single-plex assays. Compounds tested in dose response assays were serially diluted 1:3 a total of eight times from a starting concentration of 10 mM giving a 9-point dilution series in DMSO.
(§3) bConfirmatory screens entailed dose response assays conducted in a multiplex format with eight GTPases tested as for primary screen. BODIPY-GTP-binding activity was
(§4) measured in the presence of 10 nM to 100 µM of each of 11 test compounds (4 primary screen hits and 7 additional NSAIDs considered to have chemical similarity to GTPase
(§5) active compounds). GST-GFP coated beads served as a control to detect non-specific dissociation or denaturation caused by compound addition–none of the tested NSAIDs had
(§6) any effect on bead-GST-protein binding. EC50 values were determined using Prism to determine dose response fits as shown in Figure 1 of main text; fits have R2 > 0.9. Active
(§7) compounds based on same definition used as in primary screena. […]
(§8) ‡A well-characterized selective Cdc42 inhibitor served as a positive control.

[1] = tested on: Rac1 membrane localization; assay: Rac1 immunolocalization, OvCa433 cells; type: cell-based, human
Cdc42 wt = Cdc42 wt (Homo sapiens, UniProt P60953); assay: Dose response, BODIPY-GTP binding; conditions: 10 nM to 100 µM
Rac1 wt = Rac1 wt (Homo sapiens, UniProt P63000); assay: Dose response, BODIPY-GTP binding; conditions: 10 nM to 100 µM
H-RasG12V = H-RasG12V (Homo sapiens, UniProt P01112, G12V); assay: Dose response, BODIPY-GTP binding; conditions: 10 nM to 100 µM
Method: as §1, §2, §3, §4, §5, §6, §7, §8

Rab2 = Rab2 (Homo sapiens, UniProt P61019); assay: Dose response, BODIPY-GTP binding; conditions: 10 nM to 100 µM
GST-Rac1 = GST-Rac1 (Homo sapiens, UniProt P63000); assay: In vitro nucleotide binding assay on individual GTPase (13 µm GSH beads); conditions: GST-Rac1 and GST-Cdc42; BODIPY-GTP 300 nM
human COX-1 = target: T1, human COX-1 (Homo sapiens, UniProt P23219); assay: Cyclooxygenase assay (CEREP), PGE2 formation; type: biochemical; conditions: recombinant enzyme, 4 μM arachidonic acid
T1 construct: purchased CEREP Laboratories (contract assay); host or cells: Sf-9

[2] = tested on: Tiam1 membrane localization; assay: Tiam1 immunolocalization, OvCa433 cells; type: cell-based, human
Method: OvCa433 were plated on coverslips, treated with 300 μM NSAIDs for 1 h, fixed with 3% paraformaldehyde and immunostained for Rac1 or Tiam1. Actin was visualized with rhodamine phalloidin from Invitrogen (F432). Cells were imaged on a Zeiss LSM510 using a 63x objective and quantified using Image J.
Rac1 and Tiam1 antibodies were confirmed in our hands to recognize single protein species of the predicted molecular weight by immunoblot.

Rab7 = Rab7 (Homo sapiens, UniProt P51149); assay: Dose response, BODIPY-GTP binding; conditions: 10 nM to 100 µM
[3] = target: Rac1Q61L activating mutant (Homo sapiens, UniProt P63000, Q61L); assay: Dose response, BODIPY-GTP binding; conditions: 10 nM to 100 µM
Rac1 = target: T2, Rac1 (Homo sapiens, UniProt P63000); assay: G-trap flow cytometric effector binding assay, HeLa cells; type: cell-based
T2 construct: endogenous in cells; host or cells: HeLa

[4] = immunofluorescence quantified using ImageJ

T1 sequence (P23219 24-599): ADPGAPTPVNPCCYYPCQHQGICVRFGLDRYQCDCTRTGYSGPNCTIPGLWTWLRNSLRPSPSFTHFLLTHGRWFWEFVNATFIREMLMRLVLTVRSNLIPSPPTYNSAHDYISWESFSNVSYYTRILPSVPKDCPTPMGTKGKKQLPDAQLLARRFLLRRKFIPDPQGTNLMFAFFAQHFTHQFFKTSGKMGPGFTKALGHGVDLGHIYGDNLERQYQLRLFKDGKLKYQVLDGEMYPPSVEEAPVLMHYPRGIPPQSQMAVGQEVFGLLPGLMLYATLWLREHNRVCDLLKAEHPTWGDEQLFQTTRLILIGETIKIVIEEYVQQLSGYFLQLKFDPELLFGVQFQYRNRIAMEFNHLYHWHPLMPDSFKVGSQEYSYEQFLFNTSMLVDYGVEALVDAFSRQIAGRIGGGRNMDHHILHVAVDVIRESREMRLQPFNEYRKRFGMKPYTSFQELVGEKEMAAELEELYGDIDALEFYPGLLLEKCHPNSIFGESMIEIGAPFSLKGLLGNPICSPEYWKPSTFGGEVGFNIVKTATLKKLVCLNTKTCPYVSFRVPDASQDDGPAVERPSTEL
Rab2, sequence (P61019 whole entry, species assumed): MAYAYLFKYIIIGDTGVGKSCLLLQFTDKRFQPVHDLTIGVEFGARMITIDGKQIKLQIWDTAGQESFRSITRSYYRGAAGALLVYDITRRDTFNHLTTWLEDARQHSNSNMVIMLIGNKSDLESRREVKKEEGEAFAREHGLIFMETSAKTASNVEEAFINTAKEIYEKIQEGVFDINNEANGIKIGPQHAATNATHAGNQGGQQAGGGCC
Rab7, sequence (P51149 whole entry, species assumed): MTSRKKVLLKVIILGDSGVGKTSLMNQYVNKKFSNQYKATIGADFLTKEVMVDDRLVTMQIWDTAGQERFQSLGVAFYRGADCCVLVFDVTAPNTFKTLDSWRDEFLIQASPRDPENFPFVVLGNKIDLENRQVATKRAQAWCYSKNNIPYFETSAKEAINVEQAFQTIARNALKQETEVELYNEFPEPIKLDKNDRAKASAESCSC
Cdc42 wt, sequence (P60953 whole entry): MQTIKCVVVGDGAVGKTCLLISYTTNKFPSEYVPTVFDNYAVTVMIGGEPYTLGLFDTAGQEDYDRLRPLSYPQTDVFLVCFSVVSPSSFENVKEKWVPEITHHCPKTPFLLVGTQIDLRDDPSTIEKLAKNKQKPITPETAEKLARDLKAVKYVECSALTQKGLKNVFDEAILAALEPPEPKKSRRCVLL

- Cdc42 wt EC50 (Cdc42 wt): inactive
- Rac1 wt EC50 (Rac1 wt): inactive
- H-Ras (act) EC50 (H-RasG12V): inactive
- Rab2 EC50 (Rab2): inactive
- inhibition of BODIPY-GTP binding (GST-Rac1): inactive
- pIC50 (human COX-1): 4.55
- Rab7 EC50 (Rab7): inactive
- Rac1 (act) EC50 [3]: inactive
- fold lower potency than R-naproxen, Rac1 (Rac1): up to 6 fold
SMILES: COc1ccc2cc(CC(=O)O)ccc2c1 [6-MNA, 6-methoxy-2-napthalene acetic acid]
- activity against the GTPases in confirmatory dose response assays (words) (Ras-related GTPases; 10 nM to 100 µM): lacked activity
- activity against the GTPases in confirmatory dose response assays (words) (Ras-related GTPases; 10 nM to 100 μM, listed as 6MNA): inactive
- effect (Ras-related GTPases; at 0.1 mM, against all GTPases): less than 20%
- Rac1 membrane localization ([1]; 300 μM): no effect
- Rac PM Localiz. [1, 4]: 98%
- Tiam1 membrane localization ([2]; 300 μM): only slightly reduced
- Tiam1 GEF PM localiz. [2, 4]: 73%

From PMC4641600, “Novel Activities of Select NSAID R-Enantiomers against Rac1 and Cdc42 GTPases” (PLoS ONE, 2015)
